In brackets after ≈: the same amount, converted by molar mass. Positions of bridges follow the written chain, without caps; N, C: chain ends. Non-standard residues stand in square brackets, D forms with d. Residues, ends and D or L forms follow the SMILES beside them. *: point of attachment. Heptanoyl(6-Me) = CC(C)CCCCC(=O)*; Dab = NCC[C@H](N)C(=O)O

Test [1] relates to E. coli K12. It counts as cell-based, Escherichia coli. As to the method:
Determination of antibacterial activities by broth dilution assay
Bacterial suspensions at 5-6 x 10^5 CFU (1:1000 dilution of a bacterial suspension of OD600 = 1) in T-medium were incubated in volumes of 200 µl in sterile clear 96-well microtiter plates at 37 °C in a wet chamber with serial dilution of peptide-colistin constructs and controls (32 – 0.016 µM) for 18 h.
External neutrophil elastase was added at 10 mU/ml or 100 mU/ml to each well at the start of incubation, where indicated. After the incubation, the plate was placed for 5 min on a MTP shaker to generate homogenous bacterial suspensions. OD600 was then determined in a microplate reader. The wells with the lowest compound concentration without growth defined the MICs. […]
Figure S7. Heat plot of the growth of E. coli K12 and E. coli DSM 1116 in presence of 6. Rows A-D: E. coli K12; Rows E-H: E. coli DSM 1116; A + E colistin; B + F peptide-colistin construct 6; C + G peptide-colistin construct 6 + 10 mU/ml elastase; D + H bacteria without compounds. The numbers below the heatplot depict the concentration of colistin and peptides in µM. Conditions: T medium, incubation 20 h at 37 °C in wet chamber; inoculum: cultures at OD = 1.0 diluted 1:1000 (5-6 x 10^5 CFU/ml). […]
Figure S10. Heat plot of the growth of E. coli in presence of 48 and 49. Row A: E. coli K12 without added compounds; B colistin B; C peptide-colistin construct 49; D peptide-colistin construct 49 + 10 mU/ml elastase; E ElsaSub-colistin; F 48 with 10 mU elastase; G 4; H 4 with […]. The numbers depict the concentration of colistin and peptides in µM. Conditions: T medium, incubation 17.5 h at 37 °C in wet chamber; inoculum 5-6 x 10^5 CFU/ml. […]
with elastase 10 mU/ml pos-1-isomer (22) […]
with elastase 10 mU/ml pos-3-isomer (28) […]
with elastase 10 mU/ml pos-5-isomer (34) […]
with elastase 10 mU/ml pos-8-isomer (40) […]
with elastase 10 mU/ml pos-9-isomer (46)
Figure S11. Heat plot of the growth of E. coli in presence of positional isomers obtained by total chemical synthesis. Conditions: T medium, incubation for 20 h at 37 °C in wet chamber; inoculum 5-6 x 10^5 CFU/ml. Addition of neutrophil elastase at 10 and 100 mU/ml, as indicated. Concentrations of isomers stated below the heat plot in µg/ml. […]

Test [2] deals with E. coli DSM 1116. It counts as cell-based, Escherichia coli. The note with it: Table 1; without elastase; broth dilution, T-medium, 5-6 x 10^5 CFU, 37 °C, OD600 readout. As to the method:
min at rt, and blood smears were prepared on microscopy slides that were air-dried in the dark. Phase contrast and fluorescence (485/520 nm) microscopy pictures were captured with a Zeiss Axiovert with a 40× APO 1.4 lens. For quantification of fluorescence, pictures were analyzed by using ImageJ (v1.52).
Outlines were drawn around each cell and circularity, area and mean fluorescence were determined.
In addition, several background readings were taken at empty areas. Total corrected cellular fluorescence (TCCF) = integrated density – (area of selected cell × mean fluorescence of background readings), was calculated for 200 bacteria for each assay.
Determination of antibacterial activities by broth dilution assay […]
External neutrophil elastase was added at 10 mU/ml or 100 mU/ml to each well at the start of incubation, where indicated. […] OD600 was then determined in a microplate reader. […]
Quantification of 1, 6 and 7
To 50 µl samples 50 µl acetic acid were added and the samples were filtered through 10 kDa ultrafiltration columns (Amicon Ultra 0.5 ml, Millipore) by centrifugation for 60 min at 14.000 x g and 4 °C. […] Colistin was quantified on a Q-Trap 6500 HPLC-MS with samples of 5 µl each as described above. […]

Where [3] appears, read: Table 2, E. coli K12, conservative MIC readouts of at least three independent biological experiments.

Regarding `CC(C)CCCCC(=O)N[C@@H](CCN)C(=O)N[C@H](C(=O)N[C@@H](CCN)C(=O)N[C@H]1CCNC(=O)[C@H]([C@@H](C)O)NC(=O)[C@H](CCN)NC(=O)[C@H](CCN)NC(=O)[C@H](CC(C)C)NC(=O)[C@@H](CC(C)C)NC(=O)[C@H](CCN)NC1=O)[C@@H](C)O` [Compound 1, colistin B, reference compound] ({Heptanoyl(6-Me)}-[Dab]T[Dab][Dab][Dab][dL]L[Dab][Dab]T; lactam 4-C), the “MIC, E. coli K12” value in test [1] (Table 1, without elastase, broth dilution, T-medium, 5-6 x 10^5 CFU, 37 °C, OD600 readout) came to 0.063 µM (≈ 0.0728 µg/mL). Further, in test [1] (setting [3]), the “MIC with 10 mU mL^−1 Elastase” value is 0.031 µM, the “MIC with 100 mU mL^−1 Elastase” value amounted to 0.031 µM and the “MIC without Elastase” value turned out to be 0.031 µM (≈ 0.0358 µg/mL). Moreover, the “MIC, E. coli DSM 1116” value in test [2] is 0.063 µM (≈ 0.0728 µg/mL).

Values taken from publication PMC8456958, “Selective Bacterial Targeting and Infection‐Triggered Release of Antibiotic Colistin Conjugates” (Angewandte Chemie (International Ed. in English), 2021).
